Results reported in US8318467B2, “Inhibitors of GSK-3 and crystal structures of GSK-3β protein and protein complexes” (Vertex Pharmaceuticals Incorporated, priority 2001, dated 2012).

These compounds were tested against T1, GSK-3β (amino acids 1-420) (Homo sapiens, UniProt P49841) (assay: Ki determination for the inhibition of GSK-3 (standard coupled enzyme system)). Settings: 20 μM ATP, 300 μM peptide, 20 nM GSK-3β, 30° C.; read-out: Ki (GSK-3 inhibitory activity).
T1 construct: hexa-histidine tag with thrombin cleavage site (N); made in house
T1 sequence (P49841 whole entry, the tested form may be a part): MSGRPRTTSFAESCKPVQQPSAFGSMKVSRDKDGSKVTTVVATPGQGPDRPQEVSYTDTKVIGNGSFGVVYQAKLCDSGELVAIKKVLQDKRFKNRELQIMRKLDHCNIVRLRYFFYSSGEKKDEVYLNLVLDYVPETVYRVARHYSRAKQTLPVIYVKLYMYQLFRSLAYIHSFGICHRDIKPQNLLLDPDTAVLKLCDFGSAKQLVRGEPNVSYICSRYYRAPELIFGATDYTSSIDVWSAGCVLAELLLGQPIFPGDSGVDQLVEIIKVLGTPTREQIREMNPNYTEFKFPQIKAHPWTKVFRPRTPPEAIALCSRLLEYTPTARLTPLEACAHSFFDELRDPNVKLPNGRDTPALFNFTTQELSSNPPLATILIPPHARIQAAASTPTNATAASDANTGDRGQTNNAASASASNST
Format: biochemical
Method: Reactions were carried out in a solution containing 100 mM HEPES (pH 7.5), 10 mM MgCl2, 25 mM NaCl, 300 μM NADH, 1 mM DTT and 1.5% DMSO. […] Reactions were carried out at 30° C. and 20 nM GSK-3β. Final concentrations of the components of the coupled enzyme system were 2.5 mM phosphoenolpyruvate, 300 μM NADH, 30 μg/ml pyruvate kinase and 10 μg/ml lactate dehydrogenase.
An assay stock buffer solution was prepared containing all of the reagents listed above with the exception of ATP and the test compound of interest. The assay stock buffer solution (175 μl) was incubated in a 96 well plate with 5 μl of the test compound of interest at final concentrations spanning 0.002 μM to 30 μM at 30° C. for 10 min. […] The reaction was initiated by the addition of 20 μl of ATP (final concentration 20 μM). Reaction rates were obtained using a Molecular Devices Spectramax plate reader (Sunnyvale, Calif.) over 10 min at 30° C. The Ki values were determined from the rate data as a function of inhibitor concentration.
With `Nc1n[nH]c2nnc(-c3ccccc3)c(-c3ccc(Cl)cc3)c12` [Compound 2, 3-Amino-4(4-chlorophenyl)-5-phenyl-1H-pyrazolo[3,4-c]pyridazine] the Ki was > 10000 nM.
`Nc1n[nH]c2nnc(-c3ccc(F)cc3)c(-c3ccc(F)cc3)c12` [Compound 3, 3-Amino-4,5-bis(4-fluorophenyl)-1H-pyrazolo[3,4-c]pyridazine] was tested, and the Ki was 100 to 10000 nM.
For `Nc1n[nH]c2nnc(-c3ccc(F)cc3)c(-c3ccccc3)c12` [Compound 4, 3-Amino-4-phenyl-5-(4-fluorophenyl)-1H-pyrazolo[3,4-c]pyridazine], the Ki was > 10000 nM.
With `Nc1n[nH]c2nnc(-c3ccccc3)c(-c3ccc(F)cc3)c12` [Compound 5, 3-Amino-4-(1-fluorophenyl)-5-phenyl-1H-pyrazolo[3,4-c]pyridazine] the Ki was < 100 nM.
`Nc1n[nH]c2nnc(-c3ccccc3)c(-c3cccc(F)c3)c12` [Compound 6, 3-Amino-4(3-fluorophenyl)-5-phenyl-1H-pyrazolo[3,4-c]pyridazine] was tested, and the Ki was < 100 nM.
`Nc1n[nH]c2nnc(-c3ccncc3)c(-c3ccccc3)c12` [Compound 7, 3-Amino-4-phenyl-5-(4-pyridyl)-1H-pyrazolo[3,4-c]pyridazine] was tested, and the Ki was > 10000 nM.
`Nc1n[nH]c2nnc(-c3cccc(F)c3)c(-c3ccccc3)c12` [Compound 8, 3-Amino-4-phenyl-5-(3-fluorophenyl)-1H-pyrazolo[3,4-c]pyridazine] was tested, and the Ki was < 100 nM.
`CC(=O)Nc1n[nH]c2nnc(-c3ccccc3)c(-c3ccccc3)c12` [Compound 9, N-(4,5-Diphenyl-1H-pyrazolo[3,4-c]pyridazin-3-yl)-acetamide] gave a Ki of 100 to 10000 nM.
With `O=C(Nc1n[nH]c2nnc(-c3ccccc3)c(-c3ccccc3)c12)c1ccccc1` [Compound 10, N-(4,5-Diphenyl-1H-pyrazolo[3,4-c]pyridazin-3-yl)-benzamide] the Ki was 100 to 10000 nM.
`Cc1ccc(-c2nnc3[nH]nc(N)c3c2-c2ccccc2)cc1` [Compound 11, 3-Amino-4-phenyl-5-(4-methyl-phenyl)-1H-pyrazolo[3,4-c]pyridazine] was tested, and the Ki was < 100 nM.
For `Cc1ccccc1-c1nnc2[nH]nc(N)c2c1-c1ccccc1` [Compound 12, 3-Amino-4-phenyl-5-(2-methyl-phenyl)-1H-pyrazolo[3,4-c]pyridazine], the Ki was 100 to 10000 nM.
`Cc1cccc(-c2nnc3[nH]nc(N)c3c2-c2ccccc2)c1` [Compound 13, 3-Amino-4-phenyl-5-(3-methyl-phenyl)-1H-pyrazolo[3,4-c]pyridazine] showed a Ki of 100 to 10000 nM.
In the case of `Nc1n[nH]c2nnc(-c3ccccc3Cl)c(-c3ccccc3)c12` [Compound 14, 3-Amino-4-phenyl-5-(2-chloro-phenyl)-1H-pyrazolo[3,4-c]pyridazine], the Ki is reported as < 100 nM.
In the case of `Nc1n[nH]c2nnc(-c3ccccc3F)c(-c3ccccc3)c12` [Compound 15, 3-Amino-4-phenyl-5-(2-fluorophenyl)-1H-pyrazolo[3,4-c]pyridazine], the Ki is reported as < 100 nM.
Work on `Nc1n[nH]c2nnc(-c3ccc(Cl)cc3)c(-c3ccccc3)c12` [Compound 16, 3-Amino-4-phenyl-5-(4-chloro-phenyl)-1H-pyrazolo[3,4-c]pyridazine] yielded a Ki of 100 to 10000 nM.
In the case of `Nc1n[nH]c2nncc(-c3ccccc3)c12` [Compound 32, 4-Phenyl-1H-pyrazolo[3,4-c]pyridazin-3-ylamine], the Ki is reported as 100 to 10000 nM.
